The NIST ThermoML archive (doi:10.1021/je060271a)

Settings: Liquid, Vibrating tube method

CCCC(=O)OCC(COC(=O)CCC)(COC(=O)CCC)COC(=O)CCC [pentaerythritol tetrabutyrate]
Settings | mass density [kg/m3]
283.15 K, 30442 kPa | 1076
283.15 K, 30478 kPa | 1076.1
283.15 K, 30509 kPa | 1076
283.15 K, 30540 kPa | 1076.1
283.15 K, 30577 kPa | 1076.1
283.15 K, 30608 kPa | 1076.1
283.15 K, 30639 kPa | 1076.1
283.15 K, 30670 kPa | 1076.1
283.15 K, 30707 kPa | 1076.1
283.15 K, 30738 kPa | 1076.1
283.15 K, 30775 kPa | 1076.2
283.15 K, 30806 kPa | 1076.3
283.15 K, 30838 kPa | 1076.2
283.15 K, 30875 kPa | 1076.1
283.15 K, 30906 kPa | 1076.2
283.15 K, 30938 kPa | 1076.3
283.15 K, 30975 kPa | 1076.3
283.15 K, 31008 kPa | 1076.3
283.15 K, 31040 kPa | 1076.3
283.15 K, 31071 kPa | 1076.3
283.15 K, 31110 kPa | 1076.4
283.15 K, 31141 kPa | 1076.4
283.15 K, 31179 kPa | 1076.4
283.15 K, 31211 kPa | 1076.3
283.15 K, 31243 kPa | 1076.4
283.15 K, 31282 kPa | 1076.4
283.15 K, 31314 kPa | 1076.4
283.15 K, 31346 kPa | 1076.4
283.15 K, 31385 kPa | 1076.5
283.15 K, 31418 kPa | 1076.6
283.15 K, 31450 kPa | 1076.4
283.15 K, 31490 kPa | 1076.5
283.15 K, 31523 kPa | 1076.5
283.15 K, 31556 kPa | 1076.5
283.15 K, 31595 kPa | 1076.5
283.15 K, 31628 kPa | 1076.7
283.15 K, 31662 kPa | 1076.7
283.15 K, 31695 kPa | 1076.6
283.15 K, 31735 kPa | 1076.6
283.15 K, 31768 kPa | 1076.7
283.15 K, 31807 kPa | 1076.7
283.15 K, 31841 kPa | 1076.9
283.15 K, 31875 kPa | 1076.7
283.15 K, 31909 kPa | 1076.8
283.15 K, 31949 kPa | 1076.8
283.15 K, 31983 kPa | 1076.9
283.15 K, 32023 kPa | 1076.9
283.15 K, 32057 kPa | 1076.8
283.15 K, 32092 kPa | 1076.8
283.15 K, 32133 kPa | 1076.8
283.15 K, 32167 kPa | 1076.9
283.15 K, 32202 kPa | 1076.9
283.15 K, 32236 kPa | 1076.9
283.15 K, 32278 kPa | 1077
283.15 K, 32312 kPa | 1076.9
283.15 K, 32347 kPa | 1077
283.15 K, 32390 kPa | 1077
283.15 K, 32417 kPa | 1077.1
283.15 K, 32453 kPa | 1077.1
283.15 K, 32494 kPa | 1077.2
283.15 K, 32536 kPa | 1077.1
283.15 K, 32572 kPa | 1077.1
283.15 K, 32614 kPa | 1077.1
283.15 K, 32650 kPa | 1077
283.15 K, 32692 kPa | 1077.2
283.15 K, 32728 kPa | 1077.1
283.15 K, 32764 kPa | 1077.2
283.15 K, 32806 kPa | 1077.1
283.15 K, 32845 kPa | 1077.2
283.15 K, 32881 kPa | 1077.2
283.15 K, 32918 kPa | 1077.2
283.15 K, 32954 kPa | 1077.3
283.15 K, 32998 kPa | 1077.3
283.15 K, 33034 kPa | 1077.2
283.15 K, 33071 kPa | 1077.4
283.15 K, 33114 kPa | 1077.3
283.15 K, 33151 kPa | 1077.4
283.15 K, 33188 kPa | 1077.3
283.15 K, 33232 kPa | 1077.5
283.15 K, 33270 kPa | 1077.5
283.15 K, 33308 kPa | 1077.4
283.15 K, 33355 kPa | 1077.6
283.15 K, 33391 kPa | 1077.5
283.15 K, 33429 kPa | 1077.5
283.15 K, 33473 kPa | 1077.6
283.15 K, 33511 kPa | 1077.5
283.15 K, 33548 kPa | 1077.5
283.15 K, 33586 kPa | 1077.6
283.15 K, 33631 kPa | 1077.7
283.15 K, 33670 kPa | 1077.7
283.15 K, 33708 kPa | 1077.7
283.15 K, 33754 kPa | 1077.7
283.15 K, 33792 kPa | 1077.6
283.15 K, 33838 kPa | 1077.7
283.15 K, 33878 kPa | 1077.8
283.15 K, 33917 kPa | 1077.8
283.15 K, 34179 kPa | 1077.9
283.15 K, 34232 kPa | 1078
283.15 K, 34278 kPa | 1078
283.15 K, 34325 kPa | 1078
283.15 K, 34380 kPa | 1078.1
283.15 K, 34408 kPa | 1078.1
283.15 K, 34413 kPa | 1078.1
283.15 K, 34443 kPa | 1078.1
283.15 K, 34447 kPa | 1078.3
283.15 K, 34450 kPa | 1078
283.15 K, 34451 kPa | 1078
283.15 K, 34455 kPa | 1078.1
283.15 K, 34530 kPa | 1078.2
283.15 K, 34544 kPa | 1078.1
283.15 K, 34545 kPa | 1078.1
283.16 K, 104.2 kPa | 1059
283.16 K, 104.7 kPa | 1059.1
283.16 K, 105.7 kPa | 1059
283.16 K, 107.3 kPa | 1059
283.16 K, 108.9 kPa | 1059.1
283.16 K, 113.9 kPa | 1059
283.16 K, 119.6 kPa | 1059.1
283.16 K, 129.7 kPa | 1059
283.16 K, 145 kPa | 1059.2
283.16 K, 173.9 kPa | 1059.1
283.16 K, 201.7 kPa | 1059.2
283.16 K, 220.1 kPa | 1059.2
283.16 K, 241.7 kPa | 1059.2
283.16 K, 261.3 kPa | 1059.2
283.16 K, 284.4 kPa | 1059.2
283.16 K, 305.4 kPa | 1059.2
283.16 K, 329.3 kPa | 1059.3
283.16 K, 363.7 kPa | 1059.2
283.16 K, 391.3 kPa | 1059.1
283.16 K, 432.3 kPa | 1059.2
283.16 K, 466.5 kPa | 1059.2
283.16 K, 498.2 kPa | 1059.2
283.16 K, 527.5 kPa | 1059.2
283.16 K, 550.1 kPa | 1059.3
283.16 K, 577.4 kPa | 1059.3
283.16 K, 602.2 kPa | 1059.4
283.16 K, 628.6 kPa | 1059.3
283.16 K, 657.3 kPa | 1059.4
283.16 K, 694.8 kPa | 1059.2
283.16 K, 725.1 kPa | 1059.3
283.16 K, 756.3 kPa | 1059.4
283.16 K, 786.4 kPa | 1059.4
283.16 K, 816.8 kPa | 1059.4
283.16 K, 854 kPa | 1059.4
283.16 K, 886.5 kPa | 1059.4
283.16 K, 919.6 kPa | 1059.5
